Measurements: ChEMBL document CHEMBL4308859, “Discovery of Novel Central Nervous System Penetrant Metabotropic Glutamate Receptor Subtype 2 (mGlu2) Negative Allosteric Modulators (NAMs) Based on Functionalized Pyrazolo[1,5- a]pyrimidine-5-carboxamide and Thieno[3,2- b]pyridine-5-carboxamide Cores” (J Med Chem, 2018)
pIC50: −log10 of the molar value.

Key:
[1] = target: Metabotropic glutamate receptor 2 (Rattus norvegicus, UniProt P31421); assay: (§1) Negative allosteric modulation of rat mGlu2R expressed in HEK293 cells co-expressing Galpha15 assessed as decrease in glutamate-induced calcium mobilization preincubated for 2.3 mins followed by glutamate addition and measured after 1.7 mins by Fluo-4-AM dye based fluorescence assay; type: functional, cell-based
Chain of Metabotropic glutamate receptor 2 (P31421 whole entry): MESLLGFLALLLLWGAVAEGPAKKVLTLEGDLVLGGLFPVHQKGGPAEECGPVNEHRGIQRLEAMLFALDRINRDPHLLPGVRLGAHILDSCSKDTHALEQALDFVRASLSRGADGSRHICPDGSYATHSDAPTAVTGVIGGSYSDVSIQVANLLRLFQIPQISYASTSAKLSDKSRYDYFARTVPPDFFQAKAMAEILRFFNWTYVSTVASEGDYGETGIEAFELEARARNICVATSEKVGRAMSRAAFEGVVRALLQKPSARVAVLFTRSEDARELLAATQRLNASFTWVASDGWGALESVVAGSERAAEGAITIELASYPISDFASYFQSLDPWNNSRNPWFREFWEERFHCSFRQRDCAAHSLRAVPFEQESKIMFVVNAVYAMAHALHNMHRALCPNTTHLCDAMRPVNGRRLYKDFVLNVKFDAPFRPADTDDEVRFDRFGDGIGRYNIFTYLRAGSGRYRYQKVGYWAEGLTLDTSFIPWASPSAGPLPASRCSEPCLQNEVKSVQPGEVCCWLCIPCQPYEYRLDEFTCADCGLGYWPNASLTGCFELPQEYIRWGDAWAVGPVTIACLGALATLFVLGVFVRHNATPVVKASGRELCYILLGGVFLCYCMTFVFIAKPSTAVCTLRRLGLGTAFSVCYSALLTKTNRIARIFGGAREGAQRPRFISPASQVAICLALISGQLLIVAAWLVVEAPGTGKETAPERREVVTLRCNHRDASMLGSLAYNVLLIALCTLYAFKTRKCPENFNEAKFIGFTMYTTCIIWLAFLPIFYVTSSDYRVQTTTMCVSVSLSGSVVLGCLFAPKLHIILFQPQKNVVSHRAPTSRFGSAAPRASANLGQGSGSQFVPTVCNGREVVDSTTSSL

[2] = target: Metabotropic glutamate receptor 2 (Rattus norvegicus) (UniProt P31421); assay: as §1, with “mobilization at 30 uM” for “mobilization”, “assay relative to control” for “assay”; type: functional, cell-based
Chain of Metabotropic glutamate receptor 2 (Rattus norvegicus) (P31421 19-872 limits assumed): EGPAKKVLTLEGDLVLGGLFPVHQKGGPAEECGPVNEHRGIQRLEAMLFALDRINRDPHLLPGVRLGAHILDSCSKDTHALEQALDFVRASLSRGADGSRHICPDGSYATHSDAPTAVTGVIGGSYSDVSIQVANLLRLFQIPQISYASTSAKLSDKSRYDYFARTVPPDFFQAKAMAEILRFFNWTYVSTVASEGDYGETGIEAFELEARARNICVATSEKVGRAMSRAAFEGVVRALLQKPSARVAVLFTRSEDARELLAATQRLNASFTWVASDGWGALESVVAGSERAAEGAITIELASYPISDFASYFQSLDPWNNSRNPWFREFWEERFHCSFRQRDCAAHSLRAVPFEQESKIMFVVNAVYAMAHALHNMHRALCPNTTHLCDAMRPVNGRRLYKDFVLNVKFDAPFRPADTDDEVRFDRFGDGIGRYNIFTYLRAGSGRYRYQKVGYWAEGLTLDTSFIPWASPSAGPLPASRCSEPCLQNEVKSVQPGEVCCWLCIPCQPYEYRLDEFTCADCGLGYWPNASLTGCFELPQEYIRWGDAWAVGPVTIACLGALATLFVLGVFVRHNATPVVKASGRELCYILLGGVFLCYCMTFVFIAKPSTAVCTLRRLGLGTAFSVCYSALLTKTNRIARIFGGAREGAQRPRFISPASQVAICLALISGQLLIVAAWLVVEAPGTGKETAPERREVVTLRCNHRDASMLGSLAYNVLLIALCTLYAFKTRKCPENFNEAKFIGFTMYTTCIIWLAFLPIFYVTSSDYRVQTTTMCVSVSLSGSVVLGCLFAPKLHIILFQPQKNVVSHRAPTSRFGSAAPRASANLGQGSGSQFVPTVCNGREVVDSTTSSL

[3] = Fraction unbound in rat plasma after 4 hrs by equilibrium dialysis method; type: ADME, cell-free
[4] = Fraction unbound in human plasma after 4 hrs by equilibrium dialysis method; type: ADME, cell-free
[5] = Fraction unbound in rat brain; type: ADME, tissue-based
[6] = Brain to plasma partition coefficient, Kp of the compound in Sprague-Dawley rat at 0.2 mg/kg, iv administered as cassette dose by LC-MS/MS analysis; type: ADME, organism-based; conditions: brain and plasma
[7] = Unbound brain to plasma ratio in Sprague-Dawley rat at 0.2 mg/kg, iv administered as cassette dose by LC-MS/MS analysis; type: ADME, organism-based; conditions: brain and plasma, read-out: K(p,uu,brain)
[8] = target: Metabotropic glutamate receptor 3 (Homo sapiens, UniProt Q14832); assay: Negative allosteric modulation of mGlu3R (unknown origin)
Chain of Metabotropic glutamate receptor 3 (Homo sapiens, UniProt Q14832) (Q14832 whole entry): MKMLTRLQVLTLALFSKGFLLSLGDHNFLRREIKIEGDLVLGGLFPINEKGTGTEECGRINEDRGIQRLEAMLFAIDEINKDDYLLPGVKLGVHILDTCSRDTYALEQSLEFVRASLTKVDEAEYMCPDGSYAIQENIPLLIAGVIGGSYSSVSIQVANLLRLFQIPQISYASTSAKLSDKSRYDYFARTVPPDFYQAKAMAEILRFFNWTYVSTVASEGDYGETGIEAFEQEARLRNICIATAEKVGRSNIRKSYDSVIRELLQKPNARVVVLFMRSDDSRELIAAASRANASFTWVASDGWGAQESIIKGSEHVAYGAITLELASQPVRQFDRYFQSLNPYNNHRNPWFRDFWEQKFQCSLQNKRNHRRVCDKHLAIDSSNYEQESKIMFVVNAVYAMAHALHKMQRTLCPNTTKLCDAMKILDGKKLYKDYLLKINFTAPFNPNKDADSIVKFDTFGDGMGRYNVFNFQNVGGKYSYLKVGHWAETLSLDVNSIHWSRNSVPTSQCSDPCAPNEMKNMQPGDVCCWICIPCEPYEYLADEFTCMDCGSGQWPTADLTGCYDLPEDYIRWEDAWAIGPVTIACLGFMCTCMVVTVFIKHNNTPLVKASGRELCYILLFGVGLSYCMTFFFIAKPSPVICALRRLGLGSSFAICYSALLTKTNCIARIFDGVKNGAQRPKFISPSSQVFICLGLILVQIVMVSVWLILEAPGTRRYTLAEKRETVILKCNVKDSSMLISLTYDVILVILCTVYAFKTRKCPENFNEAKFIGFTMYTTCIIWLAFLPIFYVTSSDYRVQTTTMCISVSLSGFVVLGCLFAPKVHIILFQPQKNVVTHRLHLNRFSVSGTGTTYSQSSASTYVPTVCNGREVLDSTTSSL

[9] = Brain to plasma partition coefficient, Kp of the compound in rat; type: ADME; conditions: brain and plasma
[10] = Plasma clearance in Sprague-Dawley rat at 0.2 mg/kg, iv administered as cassette dose by LC-MS/MS analysis; type: ADME, organism-based
[11] = Half life in Sprague-Dawley rat at 0.2 mg/kg, iv administered as cassette dose by LC-MS/MS analysis; type: ADME, organism-based; conditions: Sprague-Dawley, in vivo
[12] = Volume of distribution at steady state in Sprague-Dawley rat at 0.2 mg/kg, iv administered as cassette dose by LC-MS/MS analysis; type: ADME, organism-based; conditions: in vivo, read-out: Vdss
[13] = Plasma clearance in Sprague-Dawley rat at 1 mg/kg, iv by LC-MS/MS analysis; type: ADME, organism-based
[14] = Half life in Sprague-Dawley rat at 1 mg/kg, iv by LC-MS/MS analysis; type: ADME, organism-based; conditions: in vivo
[15] = Volume of distribution at steady state in Sprague-Dawley rat at 1 mg/kg, iv by LC-MS/MS analysis; type: ADME, organism-based; conditions: in vivo, read-out: Vdss
[16] = target: Metabotropic glutamate receptor 3 (Rattus norvegicus, UniProt P31422); assay: Negative allosteric modulation of rat mGlu3R expressed in Trex cells co-expressing Galpha15 assessed as decrease in glutamate-induced calcium mobilization preincubated for 2.3 mins followed by glutamate addition and measured after 2.6 mins by Fluo-4-AM dye based fluorescence assay; type: functional, cell-based
[17] = target: T1, Metabotropic glutamate receptor 1 (Homo sapiens, UniProt Q13255); assay: Negative allosteric modulation of human mGlu1R expressed in Trex293 cells assessed as decrease in glutamate-induced calcium mobilization preincubated for 2.3 mins followed by glutamate addition and measured after 2.6 mins by Fluo-4-AM dye based fluorescence assay; type: functional, cell-based
[18] = target: T2, Metabotropic glutamate receptor 5 (Homo sapiens, UniProt P41594); assay: Negative allosteric modulation of human mGlu5R expressed in Trex293 cells assessed as decrease in glutamate-induced calcium mobilization preincubated for 2.3 mins followed by glutamate addition and measured after 2.6 mins by Fluo-4-AM dye based fluorescence assay; type: functional, cell-based
T2 sequence (P41594 whole entry): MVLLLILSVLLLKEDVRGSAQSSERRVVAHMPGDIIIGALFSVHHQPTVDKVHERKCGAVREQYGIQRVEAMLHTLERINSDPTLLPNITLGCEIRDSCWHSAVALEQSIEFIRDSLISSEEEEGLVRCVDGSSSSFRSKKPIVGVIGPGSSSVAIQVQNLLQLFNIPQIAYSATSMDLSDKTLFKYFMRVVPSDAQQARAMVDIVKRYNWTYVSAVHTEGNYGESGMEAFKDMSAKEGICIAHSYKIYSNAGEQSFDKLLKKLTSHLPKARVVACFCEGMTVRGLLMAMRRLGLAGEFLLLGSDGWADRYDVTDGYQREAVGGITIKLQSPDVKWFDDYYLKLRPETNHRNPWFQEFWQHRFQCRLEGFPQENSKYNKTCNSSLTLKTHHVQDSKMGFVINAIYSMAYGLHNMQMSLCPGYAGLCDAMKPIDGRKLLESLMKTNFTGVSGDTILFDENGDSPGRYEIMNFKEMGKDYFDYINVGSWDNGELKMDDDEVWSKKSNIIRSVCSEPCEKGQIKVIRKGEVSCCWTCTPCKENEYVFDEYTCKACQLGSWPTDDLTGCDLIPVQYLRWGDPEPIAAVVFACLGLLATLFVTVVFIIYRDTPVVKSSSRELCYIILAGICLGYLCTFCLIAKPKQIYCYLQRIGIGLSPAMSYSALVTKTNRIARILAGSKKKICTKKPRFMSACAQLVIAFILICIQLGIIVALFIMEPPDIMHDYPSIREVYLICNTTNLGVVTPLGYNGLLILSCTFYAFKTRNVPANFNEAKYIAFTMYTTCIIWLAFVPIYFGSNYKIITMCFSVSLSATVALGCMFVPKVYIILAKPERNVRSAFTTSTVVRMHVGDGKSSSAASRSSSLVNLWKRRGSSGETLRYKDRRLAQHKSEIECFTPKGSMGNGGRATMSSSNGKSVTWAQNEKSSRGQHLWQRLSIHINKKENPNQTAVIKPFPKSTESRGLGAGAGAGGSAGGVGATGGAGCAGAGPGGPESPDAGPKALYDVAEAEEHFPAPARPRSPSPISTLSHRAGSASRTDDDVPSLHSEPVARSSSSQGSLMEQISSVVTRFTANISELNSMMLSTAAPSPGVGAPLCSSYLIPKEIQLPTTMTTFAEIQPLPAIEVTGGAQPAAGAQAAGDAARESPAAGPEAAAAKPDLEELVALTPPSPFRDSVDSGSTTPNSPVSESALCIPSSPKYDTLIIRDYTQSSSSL

[19] = target: Metabotropic glutamate receptor 4 (Rattus norvegicus, UniProt P31423); assay: Negative allosteric modulation of rat mGlu4 receptor expressed in HEK cells harboring GIRK assessed as reduction in glutamate-induced thallium flux preincubated for 2.3 mins followed by glutamate addition measured after 2.6 mins by BTC-AM-dye based fluorescence assay; type: cell-based
[20] = target: T3, Metabotropic glutamate receptor 6 (Homo sapiens, UniProt O15303); assay: Negative allosteric modulation of human mGlu6 receptor expressed in HEK cells harboring GIRK assessed as reduction in glutamate-induced thallium flux preincubated for 2.3 mins followed by glutamate addition measured after 2.6 mins by BTC-AM-dye based fluorescence assay; type: cell-based
T3 sequence (O15303 whole entry): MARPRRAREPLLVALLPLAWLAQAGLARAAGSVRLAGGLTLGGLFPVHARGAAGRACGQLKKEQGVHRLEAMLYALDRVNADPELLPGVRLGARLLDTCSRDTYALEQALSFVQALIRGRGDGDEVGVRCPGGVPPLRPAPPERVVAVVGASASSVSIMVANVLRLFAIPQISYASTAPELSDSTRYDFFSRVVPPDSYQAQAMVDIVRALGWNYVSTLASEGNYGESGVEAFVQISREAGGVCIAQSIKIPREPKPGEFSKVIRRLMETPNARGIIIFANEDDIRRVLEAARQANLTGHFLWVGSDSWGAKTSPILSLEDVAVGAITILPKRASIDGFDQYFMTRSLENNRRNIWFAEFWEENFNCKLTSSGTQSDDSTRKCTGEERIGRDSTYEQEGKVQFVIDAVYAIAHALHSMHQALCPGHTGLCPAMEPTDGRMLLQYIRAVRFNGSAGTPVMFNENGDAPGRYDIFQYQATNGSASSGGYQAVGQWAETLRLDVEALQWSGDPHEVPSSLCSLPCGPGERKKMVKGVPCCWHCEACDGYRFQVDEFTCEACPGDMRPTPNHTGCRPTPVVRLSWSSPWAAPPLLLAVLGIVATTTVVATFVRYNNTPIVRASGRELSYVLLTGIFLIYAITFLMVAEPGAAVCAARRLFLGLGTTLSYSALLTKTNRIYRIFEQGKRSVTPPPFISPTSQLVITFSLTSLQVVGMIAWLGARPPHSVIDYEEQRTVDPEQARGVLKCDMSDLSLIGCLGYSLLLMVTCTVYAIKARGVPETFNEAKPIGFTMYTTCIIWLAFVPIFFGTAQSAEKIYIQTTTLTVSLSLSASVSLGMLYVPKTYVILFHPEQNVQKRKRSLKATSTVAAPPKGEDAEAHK

[21] = target: Metabotropic glutamate receptor 7 (Rattus norvegicus, UniProt P35400); assay: Negative allosteric modulation of rat mGlu7 receptor expressed in HEK cells harboring GIRK assessed as reduction in […]-induced thallium flux preincubated for 2.3 mins followed by […] addition measured after 2.6 mins by BTC-AM-dye based fluorescence assay; type: cell-based
[22] = target: Metabotropic glutamate receptor 8 (Rattus norvegicus, UniProt P70579); assay: Negative allosteric modulation of rat mGlu8 receptor expressed in HEK cells harboring GIRK assessed as reduction in glutamate-induced thallium flux preincubated for 2.3 mins followed by glutamate addition measured after 2.6 mins by BTC-AM-dye based fluorescence assay; type: cell-based
[23] = target: T1, Metabotropic glutamate receptor 1; assay: Negative allosteric modulation of mGlu1R (unknown origin)
[24] = target: Metabotropic glutamate receptor 4 (Homo sapiens, UniProt Q14833); assay: Negative allosteric modulation of mGlu4R (unknown origin)
[25] = target: T2, Metabotropic glutamate receptor 5; assay: Negative allosteric modulation of mGlu5R (unknown origin)
[26] = target: T3, Metabotropic glutamate receptor 6; assay: Negative allosteric modulation of mGlu6R (unknown origin)
[27] = target: Metabotropic glutamate receptor 7 (Homo sapiens, UniProt Q14831); assay: Negative allosteric modulation of mGlu7R (unknown origin)
[28] = target: Metabotropic glutamate receptor 8 (Homo sapiens, UniProt O00222); assay: Negative allosteric modulation of mGlu8R (unknown origin)
[29] = Plasma clearance in mouse; type: ADME, organism-based

Structure (SMILES)	pIC50 [1]	Emax [2]	fraction unbound at 4 h [3]	fraction unbound at 4 h [4]	fraction unbound [5]	Kp [6]	Kp uu [7]	other results
[11CH3]Oc1ccc(-c2cc(C(N)=O)nc3cc(CN4C(=O)CCC4=O)ccc23)c(F)c1	–	–	–	–	–	–	–	pIC50 [8]: < 4.52; Kp [9]: 0.3
COc1ccc(-c2cc(C(N)=O)nc3cc(CN4CCOCC4)sc23)c(F)c1	5.85	2.3%	–	–	–	–	–	–
NC(=O)c1cc(-c2ccc(F)cc2)c2sc(COc3ccnc(C(F)(F)F)c3)cc2n1	5.76	2.3%	–	–	–	–	–	–
NC(=O)c1cc(-c2ccc(F)cc2)c2sc(COc3ccc(C(F)(F)F)nc3)cc2n1	< 5.00	–	–	–	–	–	–	–
NC(=O)c1cc(-c2ccc(F)cc2)n2nc(CCc3ccncc3)cc2n1	5.98	2.6%	–	–	–	–	–	–
COc1ccc(-c2cc(C(N)=O)nc3cc(COc4ccc(F)nc4)sc23)cc1	5.59	7.2%	–	–	–	–	–	–
Cn1ccc(COc2cnc(C(N)=O)cc2-c2ccc(F)cc2)n1	–	–	–	–	–	–	–	pIC50 [23]: < 4.52; pIC50 [8]: < 4.52; pIC50 [24]: < 4.52; pIC50 [25]: < 4.52; pIC50 [26]: < 4.52; pIC50 [27]: < 4.52; pIC50 [28]: < 4.52; clearance [29]: 118 mL/min/kg; Kp [9]: 1.9
COc1ccc(OCc2cc3nc(C(N)=O)cc(-c4ccc(F)cc4)c3s2)cn1	5.70	16.8%	–	–	–	–	–	–
NC(=O)c1cc(-c2ccc(F)cc2)c2sc(CN3CCSCC3)cc2n1	5.44	2.4%	–	–	–	–	–	–
NC(=O)c1cc(-c2ccc(F)cc2)c2sc(CN3CCCC3)cc2n1	5.18	4.1%	–	–	–	–	–	–
NC(=O)c1cc(-c2ccc(F)cc2)n2nc(COc3ccc(C(F)(F)F)nc3)cc2n1	< 5.00	–	–	–	–	–	–	–
NC(=O)c1cc(-c2ccc(F)cc2)n2nc(CCc3cccnc3)cc2n1	5.76	2.9%	–	–	–	–	–	–

Now from value to compound, other results behind:

pIC50 [1]	Emax [2]	fraction unbound at 4 h [3]	fraction unbound at 4 h [4]	fraction unbound [5]	Kp [6]	Kp uu [7]	Structure (SMILES)	other results
6.46	4.2%	0.03 to 0.12	0.03 to 0.12	0.003 to 0.009	2.5 to 2.7	0.4 to 0.6	COc1ccc(-c2cc(C(N)=O)nc3cc(COc4ccc(C(F)(F)F)nc4)nn23)c(F)c1	–
6.12	3.2%	–	–	–	> 2	< 0.4	Cc1ncccc1OCc1cc2nc(C(N)=O)cc(-c3ccc(F)cc3)c2s1	–
6.99	1.5%	0.03 to 0.12	0.03 to 0.12	0.003 to 0.009	2.5 to 2.7	0.4 to 0.6	NC(=O)c1cc(-c2ccc(F)cc2F)n2nc(COc3ccnc(C(F)(F)F)c3)cc2n1	–
6.10	2.4%	0.03	0.01	0.007	4.04	0.86	NC(=O)c1cc(-c2ccc(F)cc2)n2nc(COc3ccnc(C(F)(F)F)c3)cc2n1	clearance [10]: 10 mL/min/kg; half-life [11]: 4.28 h; Vd [12]: 3.31 L/kg; clearance [13]: 16.4 mL/min/kg; half-life [14]: 5.53 h; Vd [15]: 6.59 L/kg; pIC50 [16]: < 4.52; pIC50 [17]: < 4.52; pIC50 [18]: < 4.52; pIC50 [19]: < 4.52; pIC50 [20]: < 4.52; pIC50 [21]: < 4.52; pIC50 [22]: < 4.52
6.83	2.1%	0.03 to 0.12	0.03 to 0.12	0.003 to 0.009	2.5 to 2.7	0.4 to 0.6	COc1ccc(-c2cc(C(N)=O)nc3cc(COc4ccnc(C(F)(F)F)c4)nn23)c(F)c1	–
6.65	19.7%	0.03 to 0.12	0.03 to 0.12	0.003 to 0.009	2.5 to 2.7	0.4 to 0.6	NC(=O)c1cc(-c2ccc(F)cc2)n2nc(COc3ccnc(Br)c3)cc2n1	–
7.06	2.3%	0.04	0.02	0.006	4.25	0.59	NC(=O)c1cc(-c2ccc(F)cc2)n2nc(CCc3ccnc(C(F)(F)F)c3)cc2n1	–
6.06	29.3%	–	–	–	> 2	< 0.4	NC(=O)c1cc(-c2ccc(F)cc2)c2sc(COc3ccc(Cl)nc3)cc2n1	–
